Measured values from ChEMBL document CHEMBL4622904, “The discovery of azetidine-piperazine di-amides as potent, selective and reversible monoacylglycerol lipase (MAGL) inhibitors” (Bioorg Med Chem Lett, 2020).

Assays:
[1] = target: Plasma kallikrein (Homo sapiens) (UniProt P03952); experiment: Inhibition of kallikrein (unknown origin) at 10 uM relative to control
[2] = target: Prothrombin (Homo sapiens) (UniProt P00734); experiment: Inhibition of thrombin (unknown origin) at 10 uM relative to control
Chymase (Homo sapiens) = target: T1, Chymase (Homo sapiens) (UniProt P23946); experiment: Inhibition of chymase (unknown origin) at 10 uM relative to control
T1 sequence (whole entry): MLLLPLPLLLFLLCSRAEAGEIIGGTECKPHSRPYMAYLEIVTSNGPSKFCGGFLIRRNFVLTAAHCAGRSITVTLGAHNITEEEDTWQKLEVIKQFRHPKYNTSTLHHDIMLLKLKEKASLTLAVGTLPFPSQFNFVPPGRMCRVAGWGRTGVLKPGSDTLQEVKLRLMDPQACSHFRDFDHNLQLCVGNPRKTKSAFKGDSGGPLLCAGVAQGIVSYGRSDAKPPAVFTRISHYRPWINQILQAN

[3] = target: T2, Cathepsin G (Homo sapiens) (UniProt P08311); experiment: Inhibition of cathepsin G (unknown origin) at 10 uM relative to control
T2 sequence (whole entry): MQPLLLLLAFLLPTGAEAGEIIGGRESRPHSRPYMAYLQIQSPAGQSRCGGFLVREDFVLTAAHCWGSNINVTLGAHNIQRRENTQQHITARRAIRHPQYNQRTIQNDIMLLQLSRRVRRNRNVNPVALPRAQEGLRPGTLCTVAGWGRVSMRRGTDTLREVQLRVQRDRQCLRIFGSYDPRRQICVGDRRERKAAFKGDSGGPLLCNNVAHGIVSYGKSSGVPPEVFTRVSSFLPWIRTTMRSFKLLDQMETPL

[4] = target: T3, Myeloblastin (Homo sapiens) (UniProt P24158); experiment: Inhibition of proteinase 3 (unknown origin) at 10 uM relative to control
T3 sequence (whole entry): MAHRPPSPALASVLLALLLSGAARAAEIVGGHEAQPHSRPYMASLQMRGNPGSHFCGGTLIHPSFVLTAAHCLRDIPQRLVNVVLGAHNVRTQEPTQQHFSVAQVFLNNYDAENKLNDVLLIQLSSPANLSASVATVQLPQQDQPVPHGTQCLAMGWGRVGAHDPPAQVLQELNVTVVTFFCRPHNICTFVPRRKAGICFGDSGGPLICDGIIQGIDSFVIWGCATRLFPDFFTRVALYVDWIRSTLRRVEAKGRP

[5] = target: T4, Coagulation factor VII (Homo sapiens) (UniProt P08709); experiment: Inhibition of factor 7a (unknown origin) at 10 uM relative to control
T4 sequence (whole entry): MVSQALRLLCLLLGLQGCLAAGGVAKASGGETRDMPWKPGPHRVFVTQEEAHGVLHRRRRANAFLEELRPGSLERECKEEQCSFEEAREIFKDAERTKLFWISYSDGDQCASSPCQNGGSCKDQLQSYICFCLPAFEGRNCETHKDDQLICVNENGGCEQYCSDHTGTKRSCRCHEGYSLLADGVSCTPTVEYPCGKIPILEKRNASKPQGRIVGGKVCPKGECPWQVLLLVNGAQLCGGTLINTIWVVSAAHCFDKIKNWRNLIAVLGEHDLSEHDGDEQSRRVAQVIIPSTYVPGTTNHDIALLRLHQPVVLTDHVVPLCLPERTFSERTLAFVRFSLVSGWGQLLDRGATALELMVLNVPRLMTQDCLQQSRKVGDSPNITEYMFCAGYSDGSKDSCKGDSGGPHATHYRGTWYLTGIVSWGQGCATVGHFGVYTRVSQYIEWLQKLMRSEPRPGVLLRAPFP

[6] = target: Urokinase-type plasminogen activator (Homo sapiens) (UniProt P00749); experiment: Inhibition of urokinase (unknown origin) at 10 uM relative to control
Bacteria = experiment: Inhibition of bacterial streptokinase at 10 uM relative to control
Trypsin (Homo sapiens) = Trypsin (Homo sapiens) (UniProt P07477+P07478+P35030); experiment: Inhibition of trypsin (unknown origin) at 10 uM relative to control; assay type: protein assay
[7] = target: Coagulation factor X (Homo sapiens) (UniProt P00742); experiment: Inhibition of factor 10a (unknown origin) at 10 uM relative to control
[8] = AUClast in rat at 10 mg/kg, po; assay type: ADME, organism-based; set-up: dose 10 mg/kg, route oral, time 0 - last; conditions: in vivo
[9] = Half life in rat at 10 mg/kg, po; assay type: ADME, organism-based; conditions: in vivo
[10] = Clearance in rat at 10 mg/kg, po; assay type: ADME, organism-based; conditions: in vivo
[11] = Volume of distribution at steady state in rat at 10 mg/kg, po; assay type: ADME, organism-based; conditions: in vivo
[12] = Oral bioavailability in dog at 10 mg/kg; assay type: ADME, organism-based, Canis lupus familiaris; conditions: in vivo
[13] = Tmax in dog at 10 mg/kg, po; assay type: ADME, organism-based, Canis lupus familiaris; conditions: in vivo
[14] = Cmax in dog at 10 mg/kg, po; assay type: ADME, organism-based, Canis lupus familiaris; set-up: dose 10 mg/kg, route oral; conditions: in vivo
[15] = AUClast in dog at 10 mg/kg, po; assay type: ADME, organism-based, Canis lupus familiaris; set-up: dose 10 mg/kg, route oral, time 0 - last; conditions: in vivo
[16] = Half life in dog at 10 mg/kg, po; assay type: ADME, organism-based, Canis lupus familiaris; conditions: in vivo
[17] = Clearance in dog at 10 mg/kg, po; assay type: ADME, organism-based, Canis lupus familiaris; conditions: in vivo
[18] = Volume of distribution at steady state in dog at 10 mg/kg, po; assay type: ADME, organism-based, Canis lupus familiaris; conditions: in vivo
[19] = Oral bioavailability in monkey at 10 mg/kg; assay type: ADME, organism-based, Macaca mulatta; conditions: rhesus monkey, in vivo
[20] = Tmax in monkey at 10 mg/kg, po; assay type: ADME, organism-based, Macaca mulatta; conditions: rhesus monkey, in vivo
[21] = Cmax in monkey at 10 mg/kg, po; assay type: ADME, organism-based, Macaca mulatta; set-up: dose 10 mg/kg, route oral; conditions: rhesus monkey, in vivo
[22] = AUClast in monkey at 10 mg/kg, po; assay type: ADME, organism-based, Macaca mulatta; set-up: dose 10 mg/kg, time 0 - last, route oral; conditions: rhesus monkey, in vivo
[23] = Half life in monkey at 10 mg/kg, po; assay type: ADME, organism-based, Macaca mulatta; conditions: rhesus monkey, in vivo
[24] = Clearance in monkey at 10 mg/kg, po; assay type: ADME, organism-based, Macaca mulatta; conditions: rhesus monkey, in vivo
[25] = Volume of distribution at steady state in monkey at 10 mg/kg, po; assay type: ADME, organism-based, Macaca mulatta; conditions: rhesus monkey, in vivo

Chain of Coagulation factor X (Homo sapiens) (P00742 41-179 limits assumed): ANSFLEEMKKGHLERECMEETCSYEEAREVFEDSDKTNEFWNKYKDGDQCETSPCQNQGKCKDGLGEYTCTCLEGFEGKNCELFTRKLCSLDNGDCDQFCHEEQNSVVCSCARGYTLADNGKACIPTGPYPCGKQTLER
Chain of Coagulation factor X (Homo sapiens) (P00742 235-488 limits assumed): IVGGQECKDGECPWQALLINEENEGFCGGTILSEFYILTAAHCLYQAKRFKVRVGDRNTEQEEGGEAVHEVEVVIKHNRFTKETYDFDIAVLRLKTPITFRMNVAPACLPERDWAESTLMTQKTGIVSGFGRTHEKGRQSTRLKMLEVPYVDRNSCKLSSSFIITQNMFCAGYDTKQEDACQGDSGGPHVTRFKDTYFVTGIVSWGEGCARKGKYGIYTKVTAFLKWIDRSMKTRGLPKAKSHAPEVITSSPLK
Chain of Plasma kallikrein (Homo sapiens) (P03952 20-390 limits assumed): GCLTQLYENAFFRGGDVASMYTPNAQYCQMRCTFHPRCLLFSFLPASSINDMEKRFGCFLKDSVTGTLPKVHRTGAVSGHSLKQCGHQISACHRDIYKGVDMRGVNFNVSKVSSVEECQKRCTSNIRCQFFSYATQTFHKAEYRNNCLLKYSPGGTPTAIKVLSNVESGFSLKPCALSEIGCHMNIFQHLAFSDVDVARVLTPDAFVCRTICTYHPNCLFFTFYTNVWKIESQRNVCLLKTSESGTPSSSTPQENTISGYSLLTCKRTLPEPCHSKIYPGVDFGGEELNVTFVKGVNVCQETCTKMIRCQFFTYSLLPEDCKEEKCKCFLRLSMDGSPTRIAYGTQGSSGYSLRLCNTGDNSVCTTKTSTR
Chain of Plasma kallikrein (Homo sapiens) (P03952 391-638 limits assumed): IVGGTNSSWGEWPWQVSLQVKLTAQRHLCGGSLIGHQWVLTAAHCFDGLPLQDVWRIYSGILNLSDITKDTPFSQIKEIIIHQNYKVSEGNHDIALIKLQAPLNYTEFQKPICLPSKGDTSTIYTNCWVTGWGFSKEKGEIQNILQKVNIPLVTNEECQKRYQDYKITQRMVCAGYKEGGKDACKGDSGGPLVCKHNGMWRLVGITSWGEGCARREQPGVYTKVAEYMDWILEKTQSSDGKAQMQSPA

- inhibition [1]: 4%
- inhibition [2]: -1%
- inhibition (Chymase (Homo sapiens)): 11%
- inhibition [3]: 13%
- inhibition [4]: 7%
- inhibition [5]: -5%
- inhibition [6]: 2%
- inhibition (Bacteria): 1%
- inhibition (Trypsin (Homo sapiens)): -10%
- inhibition [7]: 0%
- AUC(0-t) [8]: 3730 ng·h/mL
- half-life [9]: 6.82 h
- CL/F [10]: 19.2 mL/min/kg
- Vdss [11]: 1.22 L/kg
- bioavailability [12]: 79%
- Tmax [13]: 2 h
- Cmax [14]: 2860 ng/mL
- AUC(0-t) [15]: 33600 ng·h/mL
- half-life [16]: 7.46 h
- CL/F [17]: 4.35 mL/min/kg
- Vdss [18]: 0.56 L/kg
- bioavailability [19]: 82%
- Tmax [20]: 2.67 h
- Cmax [21]: 5300 ng/mL
- AUC(0-t) [22]: 33500 ng·h/mL
- half-life [23]: 4.62 h
- CL/F [24]: 4.46 mL/min/kg
- Vdss [25]: 0.429 L/kg
SMILES: O=C(c1ccc2c(ccn2-c2ccc(F)cc2)c1)N1CC(N2CCN(C(=O)c3nccs3)CC2)C1
